Laboratory results from ChEMBL document CHEMBL1129808, “A novel photoaffinity label for the dopamine transporter based on N-substituted 3-[bis(4-fluorophenyl)methoxy]tropane” (Bioorg Med Chem Lett, 1997).

Target: Sodium-dependent dopamine transporter (Rattus norvegicus, UniProt P23977)
Assay: The compound was tested for binding affinity towards dopamine transporter in rat caudate putamen
Assay type: tissue-based

Sodium-dependent dopamine transporter, sequence (P23977 whole entry): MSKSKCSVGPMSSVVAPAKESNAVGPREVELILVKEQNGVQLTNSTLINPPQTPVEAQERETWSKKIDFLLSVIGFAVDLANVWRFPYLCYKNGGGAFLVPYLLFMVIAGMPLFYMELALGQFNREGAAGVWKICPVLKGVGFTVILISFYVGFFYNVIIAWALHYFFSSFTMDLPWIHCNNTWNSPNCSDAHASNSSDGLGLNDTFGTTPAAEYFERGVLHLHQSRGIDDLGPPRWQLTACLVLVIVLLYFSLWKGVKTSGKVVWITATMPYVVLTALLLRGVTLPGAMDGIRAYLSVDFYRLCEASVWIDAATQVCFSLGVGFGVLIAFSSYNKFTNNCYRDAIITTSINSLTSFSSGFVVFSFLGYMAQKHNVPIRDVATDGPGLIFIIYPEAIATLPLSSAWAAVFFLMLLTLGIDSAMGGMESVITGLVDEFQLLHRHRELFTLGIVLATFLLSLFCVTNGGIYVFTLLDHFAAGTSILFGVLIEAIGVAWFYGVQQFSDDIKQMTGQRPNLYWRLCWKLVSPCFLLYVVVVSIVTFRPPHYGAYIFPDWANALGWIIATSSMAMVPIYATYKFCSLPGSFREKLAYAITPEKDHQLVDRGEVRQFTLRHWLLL

## Nc1ccc(CCCCN2[C@@H]3CC[C@H]2C[C@@H](OC(c2ccc(F)cc2)c2ccc(F)cc2)C3)cc1
  Ki: 29.7 nM

## [N-]=[N+]=Nc1ccc(CCCCN2[C@@H]3CC[C@H]2C[C@@H](OC(c2ccc(F)cc2)c2ccc(F)cc2)C3)cc1I
  Ki: 159 nM
